Legend:
Format in all cases: functional, cell-based
Y79 = assay: Antiproliferative activity against human Y79 cells assessed as cell growth inhibition
U-937 = assay: Antiproliferative activity against human U-937 cells assessed as cell growth inhibition
A549 = assay: Antiproliferative activity against human A549 cells assessed as cell growth inhibition
HepG2 = assay: Antiproliferative activity against human HepG2 cells assessed as cell growth inhibition

SMILES	IC50 (Y79)	IC50 (U-937)	IC50 (A549)	IC50 (HepG2)
COc1cc(C(/C=C/c2cccc3ccccc23)=N/O)cc(OC)c1OC	> 10 µM	10 µM	> 10 µM	0.601 µM
COc1cc(C2=NOC(c3ccc4occc4c3)C2)cc(OC)c1OC (stereo unspecified)	> 10 µM	> 10 µM	> 10 µM	> 10 µM
COc1cc(C2=NOC(c3csc4ccccc34)C2)cc(OC)c1OC (stereo unspecified)	> 10 µM	> 10 µM	> 10 µM	> 10 µM
COc1cc(C(/C=C/c2ccc3oc4ccccc4c3c2)=N/O)cc(OC)c1OC	> 10 µM	9.31 µM	> 10 µM	> 10 µM
COc1cc(C2=NNC(c3ccc4sc5ccccc5c4c3)C2)cc(OC)c1OC (stereo unspecified)	> 10 µM	> 10 µM	> 10 µM	> 10 µM
COc1cc(-c2cc(-c3ccc4ccccc4c3)on2)cc(OC)c1OC	> 10 µM	> 10 µM	> 10 µM	> 10 µM
COc1cc(C2=NOC(c3ccc4c(c3)OCCO4)C2)cc(OC)c1OC (stereo unspecified)	> 10 µM	> 10 µM	> 10 µM	> 10 µM
COc1cc(C2=NNC(c3cc4ccccc4o3)C2)cc(OC)c1OC (stereo unspecified)	> 10 µM	> 10 µM	> 10 µM	> 10 µM
COc1cc(C(/C=C/c2ccc3ncccc3c2)=N/O)cc(OC)c1OC	> 10 µM	0.475 µM	0.445 µM	0.466 µM
COc1cc(-c2cc(-c3cccc4ccccc34)on2)cc(OC)c1OC	> 10 µM	0.919 µM	> 10 µM	> 10 µM
COc1cc(C2=NOC(c3cc(OC)c(OC)c(OC)c3)C2)cc(OC)c1OC (stereo unspecified)	> 10 µM	> 10 µM	> 10 µM	> 10 µM
COc1cc(C2=NNC(c3ccc4cc[nH]c4c3)C2)cc(OC)c1OC (stereo unspecified)	> 10 µM	> 10 µM	> 10 µM	> 10 µM
COc1cc(C2=NNC(c3ccc4occc4c3)C2)cc(OC)c1OC (stereo unspecified)	> 10 µM	> 10 µM	> 10 µM	> 10 µM
COc1cc(C2=NNC(c3cccc4ccccc34)C2)cc(OC)c1OC (stereo unspecified)	> 10 µM	> 10 µM	> 10 µM	> 10 µM
COc1cc(C2=NOC(c3ccc4oc5ccccc5c4c3)C2)cc(OC)c1OC (stereo unspecified)	> 10 µM	> 10 µM	> 10 µM	> 10 µM
COc1cc(C2=NOC(c3ccc4sc5ccccc5c4c3)C2)cc(OC)c1OC (stereo unspecified)	> 10 µM	0.233 µM	> 10 µM	1.68 µM
COc1cc(C(/C=C/c2ccc3occc3c2)=N/O)cc(OC)c1OC	0.371 µM	0.873 µM	> 10 µM	0.179 µM
COc1cc(-c2cc(-c3ccc4c(c3)OCCO4)on2)cc(OC)c1OC	> 10 µM	6.29 µM	5.9 µM	8.33 µM
COc1cc(C(/C=C/c2ccc3sc4ccccc4c3c2)=N/O)cc(OC)c1OC	> 10 µM	1.39 µM	> 10 µM	0.743 µM
COc1cc(C(/C=C/c2cc3ccccc3s2)=N/O)cc(OC)c1OC	> 10 µM	0.284 µM	> 10 µM	0.493 µM
COc1cc(C2=NNC(c3cc4ccccc4s3)C2)cc(OC)c1OC (stereo unspecified)	> 10 µM	> 10 µM	> 10 µM	> 10 µM
COC(=O)c1ccc2c(C3CC(c4cc(OC)c(OC)c(OC)c4)=NO3)c[nH]c2c1 (stereo unspecified)	> 10 µM	> 10 µM	> 10 µM	> 10 µM

SMILES	IC50 (Y79)	IC50 (U-937)	IC50 (A549)	IC50 (HepG2)
COc1cc(C2=NOC(c3ccc4ncccc4c3)C2)cc(OC)c1OC (stereo unspecified)	> 10 µM	> 10 µM	> 10 µM	> 10 µM
CCn1c2ccccc2c2cc(/C=C/C(=N\O)c3cc(OC)c(OC)c(OC)c3)ccc21	> 10 µM	5.21 µM	1.96 µM	0.692 µM
COc1cc(C2=NOC(c3ccc4ccccc4c3)C2)cc(OC)c1OC (stereo unspecified)	> 10 µM	> 10 µM	> 10 µM	6.3 µM
COc1cc(C2=NOC(c3cccc4ccccc34)C2)cc(OC)c1OC (stereo unspecified)	> 10 µM	> 10 µM	> 10 µM	> 10 µM
COC(=O)c1ccc2c(C3CC(c4cc(OC)c(OC)c(OC)c4)=NN3)c[nH]c2c1 (stereo unspecified)	> 10 µM	7.36 µM	> 10 µM	6.35 µM
COc1cc(C2=NOC(c3ccc4[nH]ccc4c3)C2)cc(OC)c1OC (stereo unspecified)	> 10 µM	5.51 µM	> 10 µM	> 10 µM
COc1cc(C2=NNC(c3cccc4c3OCO4)C2)cc(OC)c1OC (stereo unspecified)	> 10 µM	> 10 µM	> 10 µM	> 10 µM
COc1cc(C(/C=C/c2ccc3ccccc3c2)=N/O)cc(OC)c1OC	> 10 µM	> 7.43 µM	> 10 µM	0.432 µM
COc1cc(C2=NOC(c3cccc4c3OCO4)C2)cc(OC)c1OC (stereo unspecified)	> 10 µM	> 10 µM	> 10 µM	> 10 µM
COc1cc(C2=NNC(c3csc4ccccc34)C2)cc(OC)c1OC (stereo unspecified)	> 10 µM	> 10 µM	> 10 µM	> 10 µM
CCn1c2ccccc2c2cc(C3CC(c4cc(OC)c(OC)c(OC)c4)=NO3)ccc21 (stereo unspecified)	> 10 µM	1.56 µM	> 10 µM	4.37 µM
COc1cc(C2=NNC(c3c[nH]c4ccccc34)C2)cc(OC)c1OC (stereo unspecified)	> 10 µM	3.49 µM	7.13 µM	4.35 µM
COc1cc(C2=NOC(c3c[nH]c4ccccc34)C2)cc(OC)c1OC (stereo unspecified)	> 10 µM	3.38 µM	> 10 µM	5.61 µM
COc1cc(C2=NNC(c3c[nH]c4cc(Br)ccc34)C2)cc(OC)c1OC (stereo unspecified)	> 10 µM	1.24 µM	3.41 µM	4.56 µM
COc1cc(C2=NNC(c3ccc4c(c3)OCCO4)C2)cc(OC)c1OC (stereo unspecified)	> 10 µM	> 10 µM	> 10 µM	> 10 µM
COc1cc(C2=NNC(c3ccc4oc5ccccc5c4c3)C2)cc(OC)c1OC (stereo unspecified)	> 10 µM	> 10 µM	> 10 µM	> 10 µM
COc1cc(C2=NNC(c3ccc4[nH]ccc4c3)C2)cc(OC)c1OC (stereo unspecified)	> 10 µM	0.953 µM	2.79 µM	3.42 µM
COc1cc(C2=NNC(c3ccc4c(c3)CCO4)C2)cc(OC)c1OC (stereo unspecified)	> 10 µM	> 10 µM	> 10 µM	6.93 µM
COc1cc(C2=NOC(c3ccc4c(c3)CCO4)C2)cc(OC)c1OC (stereo unspecified)	> 10 µM	> 10 µM	> 10 µM	> 10 µM
COc1cc(-c2cc(-c3cccc4c3OCO4)on2)cc(OC)c1OC	> 10 µM	> 10 µM	> 10 µM	> 10 µM
COc1cc(C2=NNC(c3ccc4ncccc4c3)C2)cc(OC)c1OC (stereo unspecified)	> 10 µM	> 10 µM	> 10 µM	> 10 µM
COc1cc(C2=NNC(c3ccc4ccccc4c3)C2)cc(OC)c1OC (stereo unspecified)	> 10 µM	> 10 µM	> 10 µM	> 10 µM

From ChEMBL document CHEMBL5252560 (Bioorg Med Chem Lett, 2023)
